In brackets after ≈: the same amount, converted by molar mass.
Key:
Daphnia magna = conditions: chronic/long-term; duration: 21 days; reproduction
Colinus virginianus = conditions: acute; oral; mortality
Canidae = conditions: chronic; duration: 1 years; oral; Dog Other; organ weight
Rattus norvegicus = conditions: oral
Typhlodromus pyri = conditions: not reported; other

**Q.** With `CCN(CC)C(=O)C(C)Oc1cccc2ccccc12` (configuration not stated) [Napropamide] as the molecule, how does the NOEL (Anas platyrhynchos; reproductive, reproduction) read?
**A.** 309 mg/kg-day

**Q.** What about the LC50 (Anas platyrhynchos; short-term, oral, feed, mortality) of the same molecule?
**A.** > 1570 mg/kg-day

**Q.** And the NOEC (Daphnia magna)?
**A.** 4.3 mg/L

**Q.** And the LD50 (Colinus virginianus)?
**A.** > 2250 mg/kg

**Q.** And the LC50 (Tagia sp.; acute, duration: 14 days, mortality)?
**A.** 564 mg/kg

**Q.** What about the NOEC (Tagia sp.; chronic/long-term, reproduction) of the same molecule?
**A.** 60 mg/kg

**Q.** What about the NOAEL (Canidae) of the same molecule?
**A.** 50 mg/kg-day

**Q.** And the LD50 (Rattus norvegicus; acute, mortality)?
**A.** 4680 mg/kg

**Q.** What about the NOAEL (Rattus norvegicus; chronic, duration: 2 years, body weight) of the same molecule?
**A.** 30 mg/kg-day

**Q.** And the LC50 (Oncorhynchus mykiss; acute, duration: 96 hours, mortality)?
**A.** 6.6 µg/mL (≈ 24.3 µM)

**Q.** What about the NOEC (Oncorhynchus mykiss; chronic/long-term, duration: 28 days, growth) of the same molecule?
**A.** 1.1 mg/L

**Q.** What about the LEL (Typhlodromus pyri) of the same molecule?
**A.** 4500 g/ha

Source: EPA's ToxValDB 9.5 (doi:10.2903/j.efsa.2010.1565)
